Where two headings read alike, the source gives them in different places.
What was measured:
[1] = system: HCT116/VM46; test: Cytotoxic activity against the same line resistant to the most common chemotherapeutics (HCT116/VM46); format: cell-based; conditions: Homo sapiens
Text: (§1) Compounds 1 have cytotoxic activity against tumor cell lines. For example, Table 1 reports the cytotoxic activity against a colon carcinoma line (HCT116) and against the same line resistant to the most common chemotherapeutics (HCT116/VM46).

[2] = system: HCT116; test: Cytotoxic activity against colon carcinoma line HCT116; format: cell-based; conditions: Homo sapiens
Text: as §1

| Compound | IC50 ([1]; HCT-116/VM46, HCT116/VM46, resistant to the most common chemotherapeutics, read-out: IC50 Line HCT116/VM46) | IC50 ([2]; HCT-116, colon carcinoma line HCT116, read-out: IC50 Line HCT116) | IC50 ([1]; HCT-116/VM46, read-out: IC50 Line HCT116/VM46) | IC50 ([2]; HCT-116, read-out: IC50 Line HCT116) |
| --- | --- | --- | --- | --- |
| CCC(O)(C(=O)O)c1cc2n(c(=O)c1COC(C)=O)Cc1cc3ccccc3nc1-2 (stereo not shown) [17-Acetyl-camptothecinic acid, 17-acetyl-camptothecinic acid] | 25.3 nM | 8.2 nM | – | – |
| CC[C@@]1(O)C(=O)OCc2c1cc1n(c2=O)Cc2cc3ccccc3nc2-1 [Camptothecin, camptothecin] | – | – | 96.7 nM | 10.5 nM |

— patent publication US6121277A, “Camptothecin-skeleton compounds isolated from Mappia foetida and the use thereof as syntones for novel medicaments as well as therapeutical agents” (Indena S.p.A., priority 1996, dated 2000)
